Experimental data from patent US20260217767A1, “NOVEL A4B7 THIOETHER PEPTIDE DIMER ANTAGONISTS” (Protagonist Therapeutics, Inc., priority 2014, published 2026).
Where a SMILES comes first, the peptide text is derived from it.

assay: Simulated Intestinal Fluid (SIF) Stability Assay; type: in vitro ADME; details: simulated gi fluid, porcine pancreatin, 37° C.; dimers, Table 7
Experimental: Simulated Intestinal Fluid (SIF) Stability Assay
Studies were carried out in simulated intestinal fluid (SIF) to evaluate intestinal stability of the peptide molecules of the instant invention. To prepare the SIF reagent, blank FASSIF was prepared by dissolving 0.348 g NaOH, 3.954 g sodium phosphate monobasic monohydrate and 6.186 g NaCl in a final volume of 1 liter water (final pH=6.5). To this solution, 24 g porcine pancreatin (Sigma catalog P7545) was added and stirred for 30 minutes (final pancreatin concentration is 2.4%). The solution was filtered through a cheese cloth and a No. 1 Whatman filter, and 10 ml aliquots were stored at −70° C. To run the reaction, a 10 ml aliquot was thawed at 37° C., and 125 μl aliquots were removed and mixed with an equal volume of blank FASSIF. The peptide stock solution (10 mM in 100% DMSO) was diluted 75-fold in blank FASSIF. A 50 μl aliquot of the diluted peptide was combined with 125 μl pancreatin (2.4%) and 125 μl blank FASSIF to yield final concentrations of 1% pancreatin and 22 μM peptide. The reactions were incubated at 37° C., and at various time points 50 μl aliquots were removed and added to 200 μl of quench solution containing 50% acetonitrile, 50% methanol, 5% formic acid, and 1 μg/ml internal standard. The quenched samples were centrifuged at 10,000 rpm for 10 minutes, and the supernatants were analyzed by LCMS/MS. The percent remaining at each time point was calculated based on the peak area response ratio of test to compound to internal standard. Half-lives were calculated by fitting to a first-order exponential decay equation using GraphPad. A small sampling of the results of these studies is provided and discussed herein and in the accompanying figures.

`CC(C)C[C@@H]1NC(=O)[C@H]([C@@H](C)O)NC(=O)[C@H](CC(=O)O)NC(=O)[C@H](CO)NC(=O)[C@H](CCCNC(=N)N)N(C)C(=O)c2ccccc2CSC(C)(C)[C@@H](C(=O)N[C@@H](Cc2c[nH]c3ccccc23)C(=O)N[C@@H](CCC(=O)O)C(=O)N[C@H](CCCCN)C(N)=O)NC1=O` [compound 146] (HELM PEPTIDE1{[meR].S.D.T.L.[Pen].W.E.[dK].[am]}|CHEM1{[O=C(c1ccccc1C[*:2])[*:1]]}$PEPTIDE1,CHEM1,1:R1-1:R1|PEPTIDE1,CHEM1,6:R3-1:R2$$$V2.0) and `CCCC[C@@H]1NC(=O)[C@H]([C@@H](C)O)NC(=O)[C@H](CC(=O)O)NC(=O)[C@H](CO)NC(=O)[C@H](CCCNC(=N)N)N(C)C(=O)c2ccccc2CSC(C)(C)[C@@H](C(=O)N[C@@H](Cc2c[nH]c3ccccc23)C(=O)N[C@@H](CCC(=O)O)C(=O)N[C@H](CCCCN)C(N)=O)NC1=O` [compound 154] (HELM PEPTIDE1{[meR].S.D.T.[Nle].[Pen].W.E.[dK].[am]}|CHEM1{[O=C(c1ccccc1C[*:2])[*:1]]}$PEPTIDE1,CHEM1,1:R1-1:R1|PEPTIDE1,CHEM1,6:R3-1:R2$$$V2.0) cannot be ordered by half-life: < 0.333 h for the first, < 0.333 h for the second.

With `CC(C)C[C@@H]1NC(=O)[C@H]([C@@H](C)O)NC(=O)[C@H](CC(=O)O)NC(=O)[C@H](CO)NC(=O)[C@H](CCCNC(=N)N)N(C)C(=O)c2ccccc2CSC(C)(C)[C@@H](C(=O)N[C@@H](Cc2c[nH]c3ccccc23)C(=O)N[C@@H](Cc2ccc(O)cc2)C(=O)N(C)[C@@H](CCCCN)C(N)=O)NC1=O` [compound 153] (HELM PEPTIDE1{[meR].S.D.T.L.[Pen].W.Y.[meK].[am]}|CHEM1{[O=C(c1ccccc1C[*:2])[*:1]]}$PEPTIDE1,CHEM1,1:R1-1:R1|PEPTIDE1,CHEM1,6:R3-1:R2$$$V2.0) the half-life was > 3 h.

same assay, conditions: simulated gi fluid, porcine pancreatin, 37° C.; monomers, Table 6

Point of comparison: `CC(C)C[C@@H]1NC(=O)[C@H]([C@@H](C)O)NC(=O)[C@H](CC(=O)O)NC(=O)[C@H](CO)NC(=O)[C@H](CCCNC(=N)N)N(C)C(=O)c2ccccc2CSC(C)(C)[C@@H](C(=O)N[C@@H](Cc2c[nH]c3ccccc23)C(=O)N[C@@H](CCC(=O)O)C(=O)N[C@H](CCCCN)C(N)=O)NC1=O` [compound 56] (HELM PEPTIDE1{[meR].S.D.T.L.[Pen].W.E.[dK].[am]}|CHEM1{[O=C(c1ccccc1C[*:2])[*:1]]}$PEPTIDE1,CHEM1,1:R1-1:R1|PEPTIDE1,CHEM1,6:R3-1:R2$$$V2.0), half-life 3.1 h. Against it:
- CC(C)C[C@@H]1NC(=O)[C@H]([C@@H](C)O)NC(=O)[C@H](CC(=O)O)NC(=O)[C@H](CO)NC(=O)[C@H](CCCNC(=N)N)N(C)C(=O)c2ccccc2CSC(C)(C)[C@@H](C(=O)N[C@@H](Cc2c[nH]c3ccccc23)C(=O)N[C@H](CCC(=O)O)C(=O)N[C@H](CCCCN)C(N)=O)NC1=O [compound 60] (HELM PEPTIDE1{[meR].S.D.T.L.[Pen].W.[dE].[dK].[am]}|CHEM1{[O=C(c1ccccc1C[*:2])[*:1]]}$PEPTIDE1,CHEM1,1:R1-1:R1|PEPTIDE1,CHEM1,6:R3-1:R2$$$V2.0) — not separable, > 3 h
- CC(C)C[C@@H]1NC(=O)[C@H]([C@@H](C)O)NC(=O)[C@H](CC(=O)O)NC(=O)[C@H](CO)NC(=O)[C@H](CCCNC(=N)N)N(C)C(=O)c2ccccc2CSC(C)(C)[C@@H](C(=O)N[C@@H](Cc2c[nH]c3ccccc23)C(=O)N[C@@H](Cc2ccc(O)cc2)C(=O)N(C)[C@@H](CCCCN)C(N)=O)NC1=O [compound 63] (HELM PEPTIDE1{[meR].S.D.T.L.[Pen].W.Y.[meK].[am]}|CHEM1{[O=C(c1ccccc1C[*:2])[*:1]]}$PEPTIDE1,CHEM1,1:R1-1:R1|PEPTIDE1,CHEM1,6:R3-1:R2$$$V2.0) — not separable, > 3 h
- CCCC[C@@H]1NC(=O)[C@H]([C@@H](C)O)NC(=O)[C@H](CC(=O)O)NC(=O)[C@H](CO)NC(=O)[C@H](CCCNC(=N)N)N(C)C(=O)c2ccccc2CSC(C)(C)[C@@H](C(=O)N[C@@H](Cc2c[nH]c3ccccc23)C(=O)N[C@@H](CCC(=O)O)C(=O)N[C@H](CCCCN)C(N)=O)NC1=O [compound 64] (HELM PEPTIDE1{[meR].S.D.T.[Nle].[Pen].W.E.[dK].[am]}|CHEM1{[O=C(c1ccccc1C[*:2])[*:1]]}$PEPTIDE1,CHEM1,1:R1-1:R1|PEPTIDE1,CHEM1,6:R3-1:R2$$$V2.0) — within 1.5-fold, 2.98 h
- CC(C)C[C@@H]1NC(=O)[C@H]([C@@H](C)O)NC(=O)[C@H](CC(=O)O)NC(=O)[C@H](CO)NC(=O)[C@H](CCCNC(=N)N)N(C)C(=O)c2ccccc2CSC(C)(C)[C@@H](C(=O)N[C@@H](Cc2ccccc2)C(=O)N[C@H](CCC(=O)O)C(=O)N[C@H](CCCCN)C(N)=O)NC1=O [compound 65] (HELM PEPTIDE1{[meR].S.D.T.L.[Pen].F.[dE].[dK].[am]}|CHEM1{[O=C(c1ccccc1C[*:2])[*:1]]}$PEPTIDE1,CHEM1,1:R1-1:R1|PEPTIDE1,CHEM1,6:R3-1:R2$$$V2.0) — not separable, > 3 h
